The record followed here is ChEMBL document CHEMBL5338824 (J Med Chem, 2023).

Series [1] deals with T1, Protein cereblon/Bromodomain-containing protein 2 (Homo sapiens, UniProt P25440+Q96SW2). To be noted: HL-60, dose 0.1-1000 nM, time 4.0 hrs.
Target sequence in this assay (P25440 whole entry, looked up): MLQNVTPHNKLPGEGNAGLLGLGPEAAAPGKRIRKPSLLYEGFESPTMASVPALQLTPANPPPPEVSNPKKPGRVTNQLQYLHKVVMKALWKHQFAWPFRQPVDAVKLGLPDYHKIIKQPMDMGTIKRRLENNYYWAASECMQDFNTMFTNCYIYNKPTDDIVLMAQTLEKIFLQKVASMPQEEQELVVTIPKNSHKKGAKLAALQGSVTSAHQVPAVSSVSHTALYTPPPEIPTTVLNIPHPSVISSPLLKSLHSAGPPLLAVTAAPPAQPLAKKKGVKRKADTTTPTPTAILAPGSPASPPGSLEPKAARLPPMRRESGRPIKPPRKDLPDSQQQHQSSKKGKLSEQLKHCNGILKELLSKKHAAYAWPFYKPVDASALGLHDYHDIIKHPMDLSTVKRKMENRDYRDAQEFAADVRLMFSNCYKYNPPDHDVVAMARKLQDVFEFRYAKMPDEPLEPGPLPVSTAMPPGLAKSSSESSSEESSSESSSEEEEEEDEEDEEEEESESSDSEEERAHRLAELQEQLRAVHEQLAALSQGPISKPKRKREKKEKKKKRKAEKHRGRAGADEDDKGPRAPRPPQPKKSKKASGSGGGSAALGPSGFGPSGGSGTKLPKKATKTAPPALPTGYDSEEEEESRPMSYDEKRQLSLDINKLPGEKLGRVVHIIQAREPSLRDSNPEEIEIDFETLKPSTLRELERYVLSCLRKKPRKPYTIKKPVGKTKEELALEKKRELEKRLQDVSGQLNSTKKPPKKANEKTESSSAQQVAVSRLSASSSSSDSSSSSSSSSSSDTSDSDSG
Target sequence in this assay (Q96SW2 whole entry, looked up): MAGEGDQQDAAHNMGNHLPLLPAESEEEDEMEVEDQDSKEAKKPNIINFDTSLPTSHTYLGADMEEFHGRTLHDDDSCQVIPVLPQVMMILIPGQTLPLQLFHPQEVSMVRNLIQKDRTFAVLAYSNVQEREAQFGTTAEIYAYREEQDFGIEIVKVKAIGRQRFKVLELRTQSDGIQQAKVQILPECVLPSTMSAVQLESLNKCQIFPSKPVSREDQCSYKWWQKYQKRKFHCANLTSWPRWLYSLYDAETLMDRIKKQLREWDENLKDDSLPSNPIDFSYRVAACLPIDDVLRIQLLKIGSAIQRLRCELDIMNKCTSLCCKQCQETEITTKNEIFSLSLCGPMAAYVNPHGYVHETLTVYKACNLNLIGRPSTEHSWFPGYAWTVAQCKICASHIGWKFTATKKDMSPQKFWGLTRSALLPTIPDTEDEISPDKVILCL
Series [2] has as its target T2, Protein cereblon/Bromodomain-containing protein 3 (Homo sapiens, UniProt Q15059+Q96SW2). Particulars: MCF7, dose 0.1-1000 nM, time 4.0 hrs.
Target sequence in this assay (Q15059 2-726 limits assumed): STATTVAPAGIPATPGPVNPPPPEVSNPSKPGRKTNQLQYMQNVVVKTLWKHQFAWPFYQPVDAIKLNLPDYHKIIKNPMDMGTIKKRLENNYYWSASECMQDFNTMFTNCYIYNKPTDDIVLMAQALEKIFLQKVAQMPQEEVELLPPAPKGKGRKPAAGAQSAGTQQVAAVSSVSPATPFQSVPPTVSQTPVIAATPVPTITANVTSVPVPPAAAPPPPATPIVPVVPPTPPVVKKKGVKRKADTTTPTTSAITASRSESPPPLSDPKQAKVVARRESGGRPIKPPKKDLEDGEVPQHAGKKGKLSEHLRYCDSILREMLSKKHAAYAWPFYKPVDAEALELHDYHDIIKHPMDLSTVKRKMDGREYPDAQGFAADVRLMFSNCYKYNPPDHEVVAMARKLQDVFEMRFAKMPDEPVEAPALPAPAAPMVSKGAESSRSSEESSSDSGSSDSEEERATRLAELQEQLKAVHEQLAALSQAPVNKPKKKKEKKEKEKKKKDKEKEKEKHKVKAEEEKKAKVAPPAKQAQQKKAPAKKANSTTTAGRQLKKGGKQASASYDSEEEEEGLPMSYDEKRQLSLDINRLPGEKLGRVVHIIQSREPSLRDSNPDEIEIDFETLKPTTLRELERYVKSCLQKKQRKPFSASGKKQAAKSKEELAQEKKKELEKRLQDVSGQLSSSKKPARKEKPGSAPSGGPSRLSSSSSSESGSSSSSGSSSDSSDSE
Target sequence in this assay (Q96SW2 whole entry partner): as the sequence (Q96SW2 whole entry, looked up) above
Series [3] has as its target T1, Protein cereblon/Bromodomain-containing protein 2. Particulars: MV4-11, dose 0.1-1000 nM, time 4.0 hrs.
Target sequence in this assay (P25440 whole entry, looked up): as the sequence (P25440 whole entry, looked up) above
Target sequence in this assay (Q96SW2 whole entry, looked up): as the sequence (Q96SW2 whole entry, looked up) above
Series [4] has the same target. To be noted: MDA-MB-453, dose 0.1-1000 nM, time 4.0 hrs.
Target sequence in this assay (P25440 whole entry, looked up): as the sequence (P25440 whole entry, looked up) above
Target sequence in this assay (Q96SW2 whole entry, looked up): as the sequence (Q96SW2 whole entry, looked up) above
In another series the test system is RS4-11. Nature of the series: Antiproliferative activity against human RS4-11 cells assessed as cell growth inhibition incubated for 4 days by WST-8 assay. Particulars: RS4-11, 96 h. The class given is functional, cell-based.
For series [5], the target named is T1, Protein cereblon/Bromodomain-containing protein 2. Particulars: T47D, dose 0.1-1000 nM, time 4.0 hrs.
Target sequence in this assay (P25440 whole entry, looked up): as the sequence (P25440 whole entry, looked up) above
Target sequence in this assay (Q96SW2 whole entry, looked up): as the sequence (Q96SW2 whole entry, looked up) above
Series [6] has the same target. Particulars: MCF7, dose 0.1-1000 nM, time 4.0 hrs.
Target sequence in this assay (P25440 whole entry, looked up): as the sequence (P25440 whole entry, looked up) above
Target sequence in this assay (Q96SW2 whole entry, looked up): as the sequence (Q96SW2 whole entry, looked up) above
The target in series [7] is T2, Protein cereblon/Bromodomain-containing protein 3. To be noted: MOLM-13, dose 0.1-1000 nM, time 4.0 hrs.
Target sequence in this assay (Q15059 2-726 limits assumed): as the sequence (Q15059 2-726 limits assumed) above
Target sequence in this assay (Q96SW2 whole entry partner): as the sequence (Q96SW2 whole entry, looked up) above
The test system of another series is HL-60. The experiment in a line: Antiproliferative activity against human HL-60 cells assessed as cell growth inhibition incubated for 4 days by WST-8 assay. The series is classed as functional, cell-based. Particulars: HL-60, 96 h.
Series [8] addresses T2, Protein cereblon/Bromodomain-containing protein 3. To be noted: MDA-MB-231, dose 0.1-1000 nM, time 4.0 hrs.
Target sequence in this assay (Q15059 2-726 limits assumed): as the sequence (Q15059 2-726 limits assumed) above
Target sequence in this assay (Q96SW2 whole entry partner): as the sequence (Q96SW2 whole entry, looked up) above
For series [9], the system named is MV4-11. The experiment in a line: Antiproliferative activity against human MV4-11 cells assessed as cell growth inhibition incubated for 4 days by WST-8 assay. The class given is functional, cell-based. Particulars: MV4-11, 96 h.
In series [10] the target is T1, Protein cereblon/Bromodomain-containing protein 2. Particulars: RS4-11, dose 0.1-1000 nM, time 4.0 hrs.
Target sequence in this assay (P25440 whole entry, looked up): as the sequence (P25440 whole entry, looked up) above
Target sequence in this assay (Q96SW2 whole entry, looked up): as the sequence (Q96SW2 whole entry, looked up) above
Series [11] concerns MDA-MB-231. The experiment in a line: Antiproliferative activity against human MDA-MB-231 cells assessed as cell growth inhibition incubated for 4 days by WST-8 assay. The class given is functional, cell-based. To be noted: MDA-MB-231, 96 h.
In a further series the test system is MCF7. Nature of the series: Antiproliferative activity against human MCF7 cells assessed as cell growth inhibition incubated for 4 days by WST-8 assay. The class given is functional, cell-based. To be noted: MCF7, 96 h.
For series [12], the target named is T2, Protein cereblon/Bromodomain-containing protein 3. To be noted: MV4-11, dose 0.1-1000 nM, time 4.0 hrs.
Target sequence in this assay (Q15059 2-726 limits assumed): as the sequence (Q15059 2-726 limits assumed) above
Target sequence in this assay (Q96SW2 whole entry partner): as the sequence (Q96SW2 whole entry, looked up) above
The target is the same in series [13]. To be noted: RS4-11, dose 0.1-1000 nM, time 4.0 hrs.
Target sequence in this assay (Q15059 2-726 limits assumed): as the sequence (Q15059 2-726 limits assumed) above
Target sequence in this assay (Q96SW2 whole entry partner): as the sequence (Q96SW2 whole entry, looked up) above
The subject of the next series is T47D. The experiment in a line: Antiproliferative activity against human T47D cells assessed as cell growth inhibition incubated for 4 days by WST-8 assay. The series is classed as functional, cell-based. To be noted: 96 h.
A further series concerns MDA-MB-453. The experiment in a line: Antiproliferative activity against human MDA-MB-453 cells assessed as cell growth inhibition incubated for 4 days by WST-8 assay. The class given is functional, cell-based. Particulars: MDA-MB-453, 96 h.
In series [14] the target is T2, Protein cereblon/Bromodomain-containing protein 3. To be noted: MDA-MB-453, dose 0.1-1000 nM, time 4.0 hrs.
Target sequence in this assay (Q15059 2-726 limits assumed): as the sequence (Q15059 2-726 limits assumed) above
Target sequence in this assay (Q96SW2 whole entry partner): as the sequence (Q96SW2 whole entry, looked up) above
In series [15] the target is T1, Protein cereblon/Bromodomain-containing protein 2. To be noted: MOLM-13, dose 0.1-1000 nM, time 4.0 hrs.
For series [16] the target is unchanged. To be noted: MDA-MB-231, dose 0.1-1000 nM, time 4.0 hrs.
A further series has as its system MOLM-13. The experiment in a line: Antiproliferative activity against human MOLM-13 cells assessed as cell growth inhibition incubated for 4 days by WST-8 assay. The class given is functional, cell-based. Particulars: MOLM-13, 96 h.
The target in series [17] is T2, Protein cereblon/Bromodomain-containing protein 3. Particulars: T47D, dose 0.1-1000 nM, time 4.0 hrs.
Series [18] shares this target. To be noted: HL-60, dose 0.1-1000 nM, time 4.0 hrs.
For series [19] the target is unchanged. The experiment in a line: PROTAC activity at CRBN/BRD3 in human MV4-11 cells assessed as degradation of BRD3 protein level incubated for 4 hrs by Western blotting assay. The class given is cell-based.
Target sequence in this assay (Q15059 whole entry): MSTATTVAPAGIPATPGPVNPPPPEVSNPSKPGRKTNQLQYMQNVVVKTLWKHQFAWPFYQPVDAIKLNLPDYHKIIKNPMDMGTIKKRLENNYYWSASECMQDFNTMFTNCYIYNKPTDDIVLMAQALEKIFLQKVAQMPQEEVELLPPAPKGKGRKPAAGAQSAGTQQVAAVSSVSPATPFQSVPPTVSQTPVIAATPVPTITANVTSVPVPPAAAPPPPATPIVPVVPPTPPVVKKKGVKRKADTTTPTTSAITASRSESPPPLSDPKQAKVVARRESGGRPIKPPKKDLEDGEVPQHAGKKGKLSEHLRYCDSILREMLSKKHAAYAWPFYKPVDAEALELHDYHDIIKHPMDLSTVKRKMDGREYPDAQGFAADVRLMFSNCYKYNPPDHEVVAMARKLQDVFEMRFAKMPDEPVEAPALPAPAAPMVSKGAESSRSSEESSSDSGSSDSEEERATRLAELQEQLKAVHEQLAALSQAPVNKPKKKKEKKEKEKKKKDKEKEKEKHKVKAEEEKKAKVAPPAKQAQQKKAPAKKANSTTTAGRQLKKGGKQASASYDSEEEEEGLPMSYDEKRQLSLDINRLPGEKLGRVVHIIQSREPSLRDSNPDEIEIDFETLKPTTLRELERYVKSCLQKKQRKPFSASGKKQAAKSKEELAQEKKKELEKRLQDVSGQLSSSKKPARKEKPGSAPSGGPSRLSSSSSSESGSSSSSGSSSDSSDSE
Target sequence in this assay (Q96SW2 whole entry): as the sequence (Q96SW2 whole entry, looked up) above
Series [20] concerns the target T1, Protein cereblon/Bromodomain-containing protein 2. Nature of the series: PROTAC activity at CRBN/BRD2 in human MV4-11 cells assessed as degradation of BRD2 protein level incubated for 4 hrs by Western blotting assay. The series is classed as cell-based.
Target sequence in this assay (P25440 whole entry): as the sequence (P25440 whole entry, looked up) above
Target sequence in this assay (Q96SW2 whole entry): as the sequence (Q96SW2 whole entry, looked up) above
The target in series [21] is T3, Protein cereblon/Bromodomain-containing protein 4 (Homo sapiens, UniProt O60885+Q96SW2). Nature of the series: PROTAC activity at CRBN/BRD4 in human MV4-11 cells assessed as degradation of BRD4 protein level incubated for 4 hrs by Western blotting assay. The series is classed as cell-based.
The target in series [22] is T3, Protein cereblon/Bromodomain-containing protein 4. To be noted: MV4-11, dose 0.1-1000 nM, time 4.0 hrs.
Series [23] concerns MV4-11. The experiment in a line: Antitumor activity against human MV4-11 cells xenografted in SCID mouse assessed as inhibition of tumor growth at 20 mg/kg,ip qd administrated and measured after 1 week. The series is classed as functional. To be noted: MV4-11, 168 h, time 1 weeks.
Series [24] in a line: Toxicity in SCID mouse xenografted with human MV4-11 cells assessed as body weight loss at 20 mg/kg,ip qd administrated 5 days per week for 4 weeks. The class given is organism-based. To be noted: in vivo, 672 h, time 28 day.
Series [25] can be described thus: Toxicity in SCID mouse xenografted with human MDA-MB-231 cells assessed as toxic signs at 20 mg/kg,ip qd administrated 5 days per week for 4 weeks. The class given is organism-based. To be noted: in vivo, 672 h, time 28 day.
Series [26] deals with MV4-11. The experiment in a line: Antitumor activity against human MV4-11 cells xenografted in SCID mouse assessed as decrease in tumor growth at 20 mg/kg,ip qd administrated and measured after 48 hrs. The class given is functional, organism-based.
Series [27] can be described thus: Toxicity in SCID mouse xenografted with human MDA-MB-231 cells assessed as body weight loss at 20 mg/kg,ip qd administrated 5 days per week for 4 weeks. The series is classed as organism-based. Particulars: in vivo, 672 h, time 28 day.
Series [28] is described as follows: Toxicity in SCID mouse xenografted with human MV4-11 cells assessed as toxic signs at 20 mg/kg,ip qd administrated 5 days per week for 4 weeks. The class given is organism-based. Particulars: in vivo, 672 h, time 28 day.
Series [29] deals with T2, Protein cereblon/Bromodomain-containing protein 3. Nature of the series: In vivo protac activity at CRBN/BRD3 in human MV4-11 cells xenografted in SCID mouse assessed as degradation of BRD3 protein at 20 mg/kg,ip administrated and measured at 3 to 48 hrs by Western blotting analysis. The series is classed as functional, organism-based. To be noted: time lower 3.0 hrs, time upper […].

The test system of series [30] is MV4-11. The experiment in a line: Antitumor activity against human MV4-11 cells xenografted in SCID mouse assessed as inhibition of tumor growth at 20 mg/kg,ip qd administrated 5 days per week for 4 weeks. The class given is functional. To be noted: MV4-11, 672 h, time 28 day.
Series [31] has as its system MDA-MB-231. The experiment in a line: Antitumor activity against human MDA-MB-231 cells xenografted in SCID mouse assessed as inhibition of tumor growth at 20 mg/kg,ip qd administrated 5 days per week for 4 weeks. The series is classed as functional. Particulars: MDA-MB-231, 672 h, time 28 day.
Series [32] concerns the target T1, Protein cereblon/Bromodomain-containing protein 2. The experiment in a line: In vivo protac activity at CRBN/BRD2 in human MV4-11 cells xenografted in SCID mouse assessed as degradation of BRD2 protein at 20 mg/kg,ip administrated and measured at 3 to 48 hrs by Western blotting analysis. The class given is functional, organism-based. To be noted: time lower 3.0 hrs, time upper […].

Molecules are shown by their SMILES. Activity calls are given as the source filed them. The rule behind the calls is not given here.

T3 sequence (Q96SW2 whole entry, looked up, other chains not shown): as the sequence (Q96SW2 whole entry, looked up) above

For the compound `Cc1nnc2n1-c1sc(C#Cc3cnn(C4CN(c5cccc6c5C(=O)N(C5CCC(=O)NC5=O)C6=O)C4)c3)c(Cc3ccccc3)c1COC2` (stereo unspecified), the maximum response (Emax) in series [1] turned out to be 10%; in [2], 34%; in series [3], 0%; in series [4], 18%; in series [5], 0%; in series [6], 0%. Further, the Emax was 13% in series [7]; 19% in series [8]; less than 10% in series [10]; 0% in series [12]; 6% in series [13]; 5% in series [14]. For the same compound, the maximal effect (Emax) in [15] worked out at 27%; in series [16] it was 0%; in series [17] it was 22%; in series [18] it was 18%. Besides, the IC50 in the series with RS4-11 was 6.4 nM; with HL-60, 4.9 nM; in the series with MV4-11 [9], 17 nM; in the series on MDA-MB-231 [11], 15.9 nM; in the series with MCF7, 37.8 nM; in the series on T47D, 3.3 nM. The figures for the IC50 in the series with MDA-MB-453 and in the series on MOLM-13 were 59.9 nM and 25 nM, respectively.
In the case of `Cc1nnc2n1-c1sc(C#Cc3cnn(C4CN(c5cccc6c5C(=O)N(C5CCC(=O)N(C)C5=O)C6=O)C4)c3)c(Cc3ccccc3)c1COC2` (stereo unspecified), the results for the maximal effect (Emax) in [3], in series [22] and in series [12] were 5%, 2% and 12%, respectively. Also, the DC50 in series [19], in series [20] and in series [21] was more than 1000 nM in each case.
As to `Cc1nnc2n1-c1sc(C#Cc3cnn(C4CCN(c5cccc6c5C(=O)N(C5CCC(=O)NC5=O)C6=O)CC4)c3)c(Cc3ccccc3)c1COC2` (stereo unspecified), the Emax was 68% in series [3] and 56% in series [12].
For the compound `Cc1nnc2n1-c1sc(C#Cc3cnn(C4(CCN5CCN(C)CC5)CN(c5cccc6c5C(=O)N(C5CCC(=O)NC5=O)C6=O)C4)c3)c(Cc3ccccc3)c1COC2` (stereo unspecified), the inhibition in vivo at 20 mg/kg in the series on MV4-11 [23] worked out at 56%. Moreover, the Emax in [1] was determined as 18%; in series [2], 0%; in [3] it was 0%; in [4], 0%; in series [5], 6%; in [6], 11%. Further, the Emax is 9% in series [7]; 0% in series [8]; 15% in series [10]; 0% in series [12]; 15% in [13]; 14% in [14]. The Emax in series [15] is 0%; in series [16], 0%; in series [17] it was 25%; in series [18] it was 10%. In addition, the Activity entry in series [24], in series [25], in series [27] and in [28] was “Non-Toxic” in each case. Further, the IC50 with RS4-11 was 4.6 nM; in the series on HL-60, 5.1 nM; with MV4-11 [9] it was 11 nM; in the series on MDA-MB-231 [11], 17.6 nM; with MCF7, 38.4 nM; with T47D it was 3.8 nM. Moreover, the results for the IC50 in the series on MDA-MB-453 and in the series with MOLM-13 were 80.9 nM and 69 nM, respectively. The result in the series with MV4-11 [26] was Active.
With `Cc1nnc2n1-c1sc(C#Cc3cnn(C)c3)c(Cc3ccccc3)c1COC2`, the maximal response (Emax) in series [3] and in [12] was 0% throughout. For the same compound, the outcome in series [29] and in series [32] was inactive. For the same compound, the IC50 in the series with RS4-11 is 186 nM; in the series with HL-60, 113 nM; with MV4-11 [9] it was 149 nM; with MDA-MB-231 [11] it was 151 nM; in the series with MCF7, 804 nM; in the series with T47D it was 623 nM. In addition, the concentration for half-maximal inhibition (IC50) in the series with MDA-MB-453 came to 689 nM; in the series with MOLM-13 it was 212 nM. Besides, the inhibition in vivo at 20 mg/kg in the series on MV4-11 [30] stood at 63%; in the series with MDA-MB-231 [31], 49%.
